From the SangsterLogP compilation come the findings set out here.

This series is described as follows: method code SF-HPLC, from DOI: 10.1021/jm00151a006, PMID: 3510299.

The compound `CN(Cc1ccccc1)N=O` registered a logP of 1.55.

As for `CN(Cc1ccc(F)cc1)N=O`, the logP is 1.67.

On to `Cc1cccc(CN(C)N=O)c1`, for which the logP is 1.96.

In the case of `COc1ccc(CN(C)N=O)cc1`, the log partition coefficient (logP) is 1.62.

In turn, `CN(Cc1ccc(C#N)cc1)N=O` showed a logP of 0.99.

`CN(Cc1cccc(C(F)(F)F)c1)N=O` yielded a lipophilicity (logP) of 1.99.

`Cc1ccc(CN(C)N=O)cc1` gave a logP of 2.14.

In turn, `CN(Cc1ccc(Cl)cc1)N=O` gave a logP of 2.19.

For the compound `CN(Cc1cccc([N+](=O)[O-])c1)N=O`, the logP stood at 1.17.

In turn, `COc1cccc(CN(C)N=O)c1` returned a logP of 1.6.

Consider `CN(Cc1cccc(Cl)c1)N=O`, for which the logP came to 1.46.

As to `CN(Cc1ccc([N+](=O)[O-])cc1)N=O`, the logP was found to be 0.82.

Usually logP stands for the decadic logarithm of the partition coefficient of the neutral form, usually between octanol and water.
